Tests used:
Assay type in all cases: in vivo, mouse
Conditions in all cases: agent given prior to neutrophil-activating therapy
LTB4 = LTB4 ELISA of B16 tumors
Procedure: LTB4 ELISA. Tumors were dissected away from surrounding fat 24 hours post-treatment and lysed in PBS using 3 mm zirconium beads (Benchmark Scientific) in the BeadBug Microtube Homogenizer (Benchmark Scientific) for 2 cycles of 45 seconds at 3000 rpm. Crude lysate was centrifuged for 15 minutes at 16000×g at 4° C. to obtain clarified lysate. Clarified lysate was deproteinized by ethanol precipitation by adding 4 volumes of 100% ethanol, incubating on ice for 5 minutes, and centrifuging for 10 minutes at 3000×g at 4° C. Deproteinized supernatant was transferred to a new tube, ethanol was removed by evaporation at room temperature, and samples were brought to the appropriate volume in ELISA assay buffer. LTB4 content was determined with the Leukotriene B4 ELISA kit (Cayman Chemical 520111) according to the manufacturer's instructions and read with a Victor X4 fluorescence microplate reader (PerkinElmer).
Ex vivo neutrophil LTB4 assay. B16 tumors were harvested from mice 12 hours after treatment with TNF+anti-CD40+anti-gp75 and digested with collagenase IV and DNase I as described above. […] Following the incubation, the supernatant was collected, centrifuged to remove cells and debris, and analyzed for LTB4 using the Leukotriene B4 ELISA kit (Cayman Chemical 520111) as described above.

B16 tumors [1] = experiment: Oxidative damage in B16 tumors (DNA/RNA oxidation, oxidized glutathione)
Procedure: Tumors were dissected away from surrounding fat, fixed in 2% paraformaldehyde for 2 hours at 4° C., equilibrated in a 30% sucrose solution at 4° C., and embedded and frozen in O.C.T. Compound (Tissue-Tek). Slides were cut to […] and blocked with 1% BSA and 10% serum matched to the secondary antibody species. […] All parameters that were quantified were acquired with identical microscope settings and adjusted identically in Photoshop, and all adjustments were applied equally across the entire tumor. Quantification was performed in ImageJ, using the wand tool on the overlaid multichannel image to draw a border around the tumor and then measuring the percent area within that border with signal for the channel of the marker quantified.
Determination of oxidized glutathione content. […] The percentage of oxidized glutathione was calculated from the reduced glutathione and total glutathione values determined by the kit.

B16 tumors [2] = experiment: TUNEL staining of cell death in B16 tumors
Procedure: Tumors were dissected away from surrounding fat, fixed in 2% paraformaldehyde for 2 hours at 4° C., equilibrated in a 30% sucrose solution at 4° C., and embedded and frozen in O.C.T. Compound (Tissue-Tek). Slides were cut to […] and blocked with 1% BSA and 10% serum matched to the secondary antibody species. The following antibodies were used for immunofluorescence: PE anti-Ly6G (clone 1A8, BioLegend), DyLight 650 anti-gp75 (clone TA99, Bio X Cell, labeled using DyLight 650 NHS Ester (Thermo Scientific)), fluorescein anti-gp75 (clone TA99, Bio X Cell, labeled using NHS-Fluorescein (Thermo Scientific)), FITC anti-DNA/RNA damage (clone 15A3, recognizing 8-hydroxy-2′-deoxyguanosine/8-oxo-7,8-dihydroguanine/8-oxo-7,8-dihydroguanosine, Abcam), and AF647 anti-C3 (clone 11H9, Novus Biologicals). DAPI (Invitrogen) was stained at 1 μg/ml. FITC/fluorescein signal was amplified using AF488 anti-FITC (ThermoFisher Scientific), and PE was amplified using biotin anti-PE (clone PE001, BioLegend) followed by DyLight 594 streptavidin (BioLegend) or DyLight 649 streptavidin (BioLegend). Prior to use of biotinylated antibodies, endogenous biotin was blocked using the Avidin/Biotin Blocking Kit (Vector Laboratories). Prior to DNA/RNA damage staining, sections were permeabilized with 0.1% Triton X-100 in 0.1% sodium citrate. TUNEL (Terminal deoxynucleotidyl transferase dUTP nick end labeling) staining was performed using the In Situ Cell Death Detection Kit, TMR Red (Roche) according to the manufacturer's instructions. […] All parameters that were quantified were acquired with identical microscope settings and adjusted identically in Photoshop, and all adjustments were applied equally across the entire tumor. Quantification was performed in ImageJ, using the wand tool on the overlaid multichannel image to draw a border around the tumor and then measuring the percent area within that border with signal for the channel of the marker quantified.

N#Cc1cc(-c2n[nH]c(-c3ccncc3)n2)ccn1 [topiroxostat]
effect of agent on LTB4 production (LTB4): did not prevent
effect of agent on oxidation in tumors (B16 tumors [1]): prevented oxidation in tumors
effect of agent on treatment-induced tumor cell death (B16 tumors [2]): reduced cell death
